Measured values from patent US12564578B2, “Collagen P4H1 inhibitor and its use” (University of Kentucky Research Foundation, priority 2019, dated 2026).
“Also recorded” adds a separate entry of the source. Like-named read-outs stand apart in the source and are kept apart here.

Tests used:
human C-P4H1 = target: T1, human C-P4H1 (Homo sapiens, UniProt P13674); experiment: Human C-P4H1 activity measured with Succinate-Glo Hydroxylase assay (also high-throughput screening); assay type: biochemical; settings: for inhibition of C-P4H1 activity (luminescence): different concentrations, 200 nM C-P4H1
T1 construct: made in house; host or cells: HEK-293FT
T1 sequence (P13674 18-534): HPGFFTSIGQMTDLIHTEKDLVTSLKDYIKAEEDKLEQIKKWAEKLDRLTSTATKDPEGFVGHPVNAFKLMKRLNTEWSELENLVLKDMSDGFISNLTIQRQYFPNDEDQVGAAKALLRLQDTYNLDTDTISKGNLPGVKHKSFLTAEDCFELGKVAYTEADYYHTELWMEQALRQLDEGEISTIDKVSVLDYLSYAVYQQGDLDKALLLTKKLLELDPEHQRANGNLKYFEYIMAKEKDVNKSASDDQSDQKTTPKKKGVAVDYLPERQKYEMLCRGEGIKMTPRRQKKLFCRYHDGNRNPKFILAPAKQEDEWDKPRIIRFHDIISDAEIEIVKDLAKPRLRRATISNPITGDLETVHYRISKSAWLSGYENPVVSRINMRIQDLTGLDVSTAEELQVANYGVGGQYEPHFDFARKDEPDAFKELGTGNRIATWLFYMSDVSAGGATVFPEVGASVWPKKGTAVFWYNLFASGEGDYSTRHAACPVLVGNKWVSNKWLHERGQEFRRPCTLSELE
T1 sequence (P07237 18-508 partner): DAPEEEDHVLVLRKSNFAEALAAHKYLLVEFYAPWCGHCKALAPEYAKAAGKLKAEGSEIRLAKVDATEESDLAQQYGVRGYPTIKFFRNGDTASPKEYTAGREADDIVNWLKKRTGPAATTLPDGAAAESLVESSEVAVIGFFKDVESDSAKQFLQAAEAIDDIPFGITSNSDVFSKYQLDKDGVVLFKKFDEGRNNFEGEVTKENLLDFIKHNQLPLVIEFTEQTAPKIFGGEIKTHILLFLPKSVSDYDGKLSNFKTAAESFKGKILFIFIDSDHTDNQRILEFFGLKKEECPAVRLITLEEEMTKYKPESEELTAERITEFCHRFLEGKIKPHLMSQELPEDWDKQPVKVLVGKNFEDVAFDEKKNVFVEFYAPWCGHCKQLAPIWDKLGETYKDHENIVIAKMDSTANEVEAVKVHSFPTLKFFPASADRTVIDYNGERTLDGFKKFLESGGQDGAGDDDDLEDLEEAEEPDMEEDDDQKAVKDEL
Procedure: Human CP4H1 activity Assays were carried out at room temperature in 10 mM HEPES buffer containing 10 mM NaCl, pH 7.4. […] FeSO4 was prepared freshly in 10 mM HCl prior to each time use. Following 1 hour reaction, the reaction solution was subjected to Hydroxyproline Colorimetric Assay and Succinate-Glo™ Hydroxylase assay respectively.
(§1) Succinate-Glo™ Hydroxylase assay was ran following the protocol of Succinate-Glo™ JmjC Demethylase/Hydroxylase Assay (Promega, V7991). Briefly, following the human CP4H1 assay, 10 μL Succinate Detection Reagent I was added, including the enzymes 3-oxoacid CoA-transferase (SCOT) and succinyl CoA ligase (SCS), and acetoacetyl-CoA. See, TM488 Technical Manual and U.S. Pat. No. 9,677,117 for “Bioluminescent Succinate Detection Assay,” issued Jun. 13, 2017, assigned to Promega Corporation. Mix assay plate with a plate shaker for 30 seconds, and incubate at room temperature for 60 minutes. Add 20 μl of Succinate Detection Reagent II, including the enzyme luciferase, to each well of the assay plate to generate light from the ATP. See, Id. Mix assay plate with a plate shaker for 30 seconds, and incubate at room temperature for 10 minutes. Measure the luminescence with a plate-reading luminometer (BioTek).
[…] Then mix with peptide substrate (GlyProProGly(SEQ ID NO:1)OEt), 500 μM), FeSO4 (50 μM), catalase (0.1 mg/mL), ascorbate (2 mM), and α-ketoglutarate (100 μM) to react 1 hour at room temperature. The reaction volume was usually 10 μL. After the reaction, Succinate-Glo™ Hydroxylase assay was conducted in the corresponding 96-well or 384-well plate. 50 μM DHB was set as a positive control in each plate.

[1] = Succinate-Glo Hydroxylase assay in the absence of C-P4H1 (counter test); assay type: biochemical; settings: no C-P4H1 in the reaction
Procedure: as §1
To further evaluate reliability of the Succinate-Glo™ assay, varied concentration of peptide substrate GPPG (FIG. 3A) and hydroxyl donor α-KG (FIG. 3B) were tested in the hydroxylation reaction, respectively. Increased concentration of GPPG and α-KG induced luminescence assay in a dose dependent manner. DHB has been identified as a C-P4Hs' inhibitor^35. To determine whether this assay can evaluate c-P4H1 inhibitor's activity, C-P4H1 was incubated with different concentration of DHB for 30 min at 4° C., and then the hydroxylation reaction and the bioluminescence-based assay were performed. […] The IC50 was detected at around 20 μM, which is much lower than the IC50 value of 0.1 mM reported in the previous research with the collagen hydroxylation assay in the chicken tendon cells (doi: 10.1042/bj2610127); this is probably due to the sensitivity difference between two methods. In the absence of C-P4H1, DHB had little effect on the Succinate-Glo™ assay, indicating the inhibitory effect is specific on the prolyl hydroxylation reaction (FIG. 3D).

[2] = test system: collagen hydroxylation in chicken tendon cells; settings: collagen hydroxylation assay, doi: 10.1042/bj2610127, read-out: IC50 reported in previous research; cited from earlier work
HS-578T cells [3] = experiment: Western blot of type I collagen in conditioned medium of treated cells; assay type: cell-based; settings: 48 hours, 10 μM and 20 μM
Procedure: Chemical treated Hs578 cells were lysed in 2% sodium dodecyl sulfate (SDS) in phosphate-buffered saline (PBS) buffer containing phosphatase and protease inhibitor cocktails (EMD Millipore, 539131). Protein concentration was measured using Pierce™ BCA Protein Assay Kit (Thermo Fisher Scientific, 23227). Equal amounts of protein lysates or cell conditional medium (normalized to cell numbers) were subjected to SDS gel electrophoresis, immunoblotted with primary antibodies (Anti-Collagen I antibody, ab34710; Anti-tubulin, Cell Signaling 2148)) and DyLight 680/800-conjugated secondary antibodies (DyLight 680-conjugated goat anti-rabbit IgG secondary antibody Thermo Fisher Scientific, 35569; DyLight 800-conjugated goat anti-mouse IgG secondary antibody Thermo Fisher Scientific, SA5-35521).
To determine whether the identified potential inhibitors suppress the C-P4H1 activity in tissue culture, HS-578T cells were treated with Silodosin or Ticlopidine for 48 hours. Since collagen maturation and secretion was regulated by the C-P4H1, conditioned media were collected from control and Silodosin- or Ticlopidine-treated cells for western blot analysis.

MDA-MB-231 cells = experiment: 3D culture assay, invasive branching / invasive growth; assay type: cell-based; settings: MDA-MB-231, 10 μM and 20 μM, 48 hours
Procedure: (§2) 3D laminin-rich extracellular matrix (3D lrECM) on-top cultures were prepared by trypsinization of cells from tissue culture plastic^25. Growth Factor Reduced BD Matrigel™ was plated on the bottom of the cell culture dish. MDA-MB-231 and HS-578 cells were seeded on the top of the matrigel layer, and additional medium containing 10% Matrigel was added on the top.
(§3) All the 3D culture assay images were acquired by Nikon microscope and were quantified with the Nikon analysis software. Results are reported as mean±S.E.M; the significance of difference was assessed by independent Student's t-test. P<0.05 represents statistical significance and P<0.01 represents sufficiently statistical significance. All reported P values were 2-tailed.
(§4) It has been shown that silence of P4HAs suppress invasive tumor growth in three-dimensional (3D) tissue culture model^19,25. 3D culture model has been widely used to evaluate drug effect^38. To further evaluate the inhibitory ability of these chemicals in tumor progression, triple-negative breast cancer cell lines, MDA-MB-231 cells and HS-578T cells were treated with Silodosin and Ticlopidine in 3D culture^39. […] Invasive branching structure of cancer cells in 3D culture is associated with tumor invasion and aggressive phenotypes^15, 19, 25. […]

HS-578T cells [4] = experiment: 3D culture assay, invasive branching; assay type: cell-based; settings: 10 μM and 20 μM, 24 hours
Procedure: as §2, §3, §4

Row | Structure (SMILES) | IC50 (human C-P4H1; 0.1 μM WT C-P4HA1 (FIG. 3E), read-out: IC50 of wild type C-P4H1 inhibition) | IC50 (human C-P4H1; C-P4H1 200 nM, preincubated 30 min at 4° C. (FIG. 3C), read-out: IC50 of C-P4H1 inhibition) | inhibition of C-P4H1 activity (luminescence) (human C-P4H1) | effect on the luminescence assay in the absence of C-P4H1 [1] | IC50 [2] | kinetic property of C-P4H1 inhibition (human C-P4H1; dose curves, FIG. 4D and 4F) | effect on the luminescence assay in the absence of C-P4H1 ([1]; listed as Silodocin) | protein levels of type I collagen in the conditioned media (HS-578T cells [3]) | invasive branching structures in 3D culture (MDA-MB-231 cells) | invasive branching structures in 3D culture (HS-578T cells [4])
1 | CCOC(=O)c1ccc(O)c(O)c1 [DHB, ethyl-3,4-dihydroxybenzoic acid] | ~40 µM | ~20 µM | significantly reduced luminescence values | little effect; also recorded: did not inhibit | 100 µM |  |  |  |  | 
2 | C[C@H](Cc1cc2c(c(C(N)=O)c1)N(CCCO)CC2)NCCOc1ccccc1OCC(F)(F)F [Silodosin] |  |  | inhibited C-P4H1 activity in a dose-dependent manner | little effect |  | faster kinetic property compared to ticlopidine | did not inhibit | reduced protein levels of type I collagen | significantly reduced invasive branching structures | significantly reduced invasive branching structures
